This note sets out measurements from ChEMBL document CHEMBL4257515, “Assessment of the trifluoromethyl ketone functionality as an alternative zinc-binding group for selective HDAC6 inhibition” (Medchemcomm, 2018).

Structures are written as SMILES. The source made the active and inactive calls. The calls are words filed in the database; no cut-off is given here.

The target in assay [1] is T1, Protein deacetylase HDAC6 (Homo sapiens) (UniProt Q9UBN7).
T1 sequence (whole entry): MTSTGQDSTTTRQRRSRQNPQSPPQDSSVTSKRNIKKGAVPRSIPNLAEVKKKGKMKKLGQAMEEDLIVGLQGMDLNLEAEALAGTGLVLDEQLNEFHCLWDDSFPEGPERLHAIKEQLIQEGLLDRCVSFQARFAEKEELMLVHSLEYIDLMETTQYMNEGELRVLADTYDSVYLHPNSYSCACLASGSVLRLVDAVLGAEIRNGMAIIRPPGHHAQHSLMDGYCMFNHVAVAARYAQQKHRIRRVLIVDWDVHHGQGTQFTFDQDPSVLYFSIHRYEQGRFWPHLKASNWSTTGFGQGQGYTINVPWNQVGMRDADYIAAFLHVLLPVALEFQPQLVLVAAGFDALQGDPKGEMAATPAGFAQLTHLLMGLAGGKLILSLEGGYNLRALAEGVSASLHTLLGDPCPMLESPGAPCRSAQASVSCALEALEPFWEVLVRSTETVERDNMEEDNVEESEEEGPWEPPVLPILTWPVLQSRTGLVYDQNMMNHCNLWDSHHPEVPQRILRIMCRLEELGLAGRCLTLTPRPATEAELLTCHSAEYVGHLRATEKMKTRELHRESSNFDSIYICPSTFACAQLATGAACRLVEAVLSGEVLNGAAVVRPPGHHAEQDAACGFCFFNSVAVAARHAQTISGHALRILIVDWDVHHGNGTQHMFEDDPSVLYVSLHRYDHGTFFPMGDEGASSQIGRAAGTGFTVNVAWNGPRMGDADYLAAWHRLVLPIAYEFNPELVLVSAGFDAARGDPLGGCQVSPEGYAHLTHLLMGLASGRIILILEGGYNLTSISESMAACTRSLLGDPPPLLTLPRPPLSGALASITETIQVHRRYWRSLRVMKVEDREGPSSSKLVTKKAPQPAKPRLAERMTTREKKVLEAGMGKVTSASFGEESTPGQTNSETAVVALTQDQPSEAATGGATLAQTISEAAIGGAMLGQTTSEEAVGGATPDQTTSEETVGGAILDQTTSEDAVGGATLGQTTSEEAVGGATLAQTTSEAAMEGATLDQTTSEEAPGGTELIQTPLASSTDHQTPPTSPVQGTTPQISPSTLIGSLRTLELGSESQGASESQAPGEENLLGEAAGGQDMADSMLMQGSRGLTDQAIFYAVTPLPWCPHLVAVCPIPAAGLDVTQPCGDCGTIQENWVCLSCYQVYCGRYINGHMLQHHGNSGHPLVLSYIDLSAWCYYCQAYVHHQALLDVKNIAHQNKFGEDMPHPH
The assay is described as follows: Inhibition of full length recombinant human HDAC6 at 10 uM using Fluor-de-Lys deacetylase as substrate preincubated for 15 mins followed by substrate addition and measured after 60 mins by spectrofluorimetric method relative to control.

Assay [2] addresses T1, Protein deacetylase HDAC6 (Homo sapiens). The assay is described as follows: Inhibition of HDAC6 in human SKOV3 cells assessed as increase in acetylated tubulin levels at 1 to 50 uM after 1 hr by immunoblot method. Type of assay: cell-based. In general terms: In western blotting, separated proteins are transferred to a membrane and probed.
The target in assay [3] is Histone deacetylase (Homo sapiens) (UniProt Q13547+O15379+Q9UBN7+Q92769+Q9UQL6+Q8WUI4+Q9BY41+Q96DB2+P56524+Q9UKV0+Q969S8). The assay is described as follows: Inhibition of nuclear HDAC in human SKOV3 cells assessed as increase in acetylated histone H3 levels at 1 to 50 uM after 1 hr by immunoblot method. Type of assay: cell-based.
The subject of assay [4] is SK-OV-3. The assay is described as follows: Antiproliferative activity against human SKOV3 cells at 1 to 50 uM measured every 2 hrs for 200 hrs by IncuCyte ZOOM cell confluence assay. Type of assay: functional, cell-based.
In assay [5] the test system is SK-OV-3. The assay is described as follows: Antiproliferative activity against human SKOV3 cells at 10 uM measured every 2 hrs for 200 hrs by IncuCyte ZOOM cell confluence assay. Type of assay: functional, cell-based.
In assay [6] the target is T1, Protein deacetylase HDAC6 (Homo sapiens). Put plainly: Inhibition of HDAC6 in human SKOV3 cells assessed as increase in acetylated tubulin levels at 1 uM after 1 hr by immunoblot method. Type of assay: cell-based.

Usually inhibition stands for how much of the control response was suppressed. As for `O=C(c1ccc(Cn2c3c(c4cc(F)ccc42)C[S+]([O-])CC3)cc1)C(F)(F)F` (stereo not given), the inhibition in assay [1] turned out to be 25%. Besides, the inhibition result in assay [2] and in assay [3] was “inactive” each time. For the same compound, the outcome in the assay with SK-OV-3 [4] was inactive.
Turning to `O=C(NO)c1ccccc1`, the inhibition in assay [1] is 88%.
As to `O=C(CCCCCCC(=O)Nc1ccccc1)NO`, the outcome with SK-OV-3 [5] was Active.
Take `O=C(c1ccccc1)C(F)(F)F`: in assay [1], the inhibition came out at 0%.
Take `O=C(NO)c1ccc(Cn2c3c(c4cc(F)ccc42)C[S+]([O-])CC3)cc1` (stereo not given): the inhibition in assay [1] came to 100%. In assay [6], the inhibition entry was “Active”.
Regarding `O=C(c1ccc(Cn2c3c(c4ccccc42)C[S+]([O-])CC3)cc1)C(F)(F)F` (stereo not given), the inhibition in assay [1] was determined as 17%.
